The record followed here is patent publication US10829458B2 (Araxes Pharma LLC, priority 2015, dated 2020).

SMILES strings stand for the structures.

In this test the target is T1, KRAS G12C 1-169, his-tagged protein, GDP-loaded (Homo sapiens, UniProt P01116, G12C).
T1 construct: KRAS G12C 1-169, his-tagged protein, GDP-loaded
In words: Biochemical assay: covalent modification of KRAS G12C measured by mass spectrometry (RapidFire/TOF or Q-Exactive). The settings on record: covalent binding to KRAS G12C; compounds of structure (I). The method in brief:
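Covalent adduct formation read by intact-mass spectrometry (TOF or Q Exactive Plus, charge envelopes deconvoluted into modified and unmodified species) after formic acid quench. Reactions contained 2 μM GDP-bound KRAS G12C 1-169 (his-tag) in Hepes/NaCl/MgCl2 buffer plus 10, 30 or 100 μM final compound, held 30 min, 2 h or 24 h at room temperature.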
As for `C=CC(=O)N1CCN(c2nc(N3CC(N4CCC4)C3)nc3c(F)c(-c4c(O)cccc4F)c(Cl)cc23)CC1` [Example I-162, 1-(4-(2-([1,3′-biazetidin]-1′-yl)-6-chloro-8-fluoro-7-(2-fluoro-6-hydroxyphenyl)quinazolin-4-yl)piperazin-1-yl) prop-2-en-1-one], the Binding % result is “+ (+ indicates binding activity up to 50%)”.

On to `C=CC(=O)N1CCN(c2nc(OCC3OCCO3)nc3c(F)c(-c4c(O)cccc4F)c(Cl)cc23)CC1` [Example I-163, 1-(4-(2-((1,3-dioxolan-2-yl)methoxy)-6-chloro-8-fluoro-7-(2-fluoro-6-hydroxyphenyl)quinazolin-4-yl)piperazin-1-yl) prop-2-en-1-one], for which the Binding % result is “+++ (+++ indicates binding activity greater than 90%)”.

In the case of `C=CC(=O)N1CCN(c2nc(OCC3OCCO3)nc3c(F)c(-c4c(C)ccc5[nH]ncc45)c(Cl)cc23)CC1` [Example I-164, 1-(4-(2-((1,3-dioxolan-2-yl)methoxy)-6-chloro-8-fluoro-7-(5-methyl-1H-indazol-4-yl)quinazolin-4-yl)piperazin-1-yl) prop-2-en-1-one], the Binding % entry is listed as “++ (++ indicates binding activity from 50 to 90%)”.

Take `C=CC(=O)N1CCN(c2nc(NC3CCN(CC#N)CC3)nc3c(F)c(-c4c(C)ccc5[nH]ncc45)c(Cl)cc23)CC1` [Example I-165, 2-(4-((4-(4-acryloyl-piperazin-1-yl)-6-chloro-8-fluoro-7-(5-methyl-1H-indazol-4-yl)quinazolin-2-yl)amino)piperidin-1-yl) acetonitrile]: the Binding % entry was “++ (++ indicates binding activity from 50 to 90%)”.

In the case of `C=CC(=O)N1CCN(c2nc(N3CC(N4CCN(C5CC5)CC4)C3)nc3c(F)c(-c4c(O)cccc4F)c(Cl)cc23)CC1` [Example I-166, 1-(4-(6-chloro-2-(3-(4-cyclopropyl-piperazin-1-yl)azetidin-1-yl)-8-fluoro-7-(2-fluoro-6-hydroxyphenyl)quinazolin-4-yl)piperazin-1-yl) prop-2-en-1-one], the Binding % entry is reported as “++ (++ indicates binding activity from 50 to 90%)”.

As to `C=CC(=O)N1CCN(c2nc(NC3CCN(CC(F)F)CC3)nc3c(F)c(-c4c(C)ccc5[nH]ncc45)c(Cl)cc23)CC1` [Example I-167, 1-(4-(6-chloro-2-((1-(2,2-difluoroethyl)piperidin-4-yl)amino)-8-fluoro-7-(5-methyl-1H-indazol-4-yl)quinazolin-4-yl)piperazin-1-yl) prop-2-en-1-one], the Binding % entry was “++ (++ indicates binding activity from 50 to 90%)”.

With `C=CC(=O)N1CCN(c2nc(OCCN3CCN(C4CC4)CC3)nc3c(F)c(-c4c(O)cccc4F)c(Cl)cc23)CC1` [Example I-168, 1-(4-(6-chloro-2-(2-(4-cyclopropyl-piperazin-1-yl)ethoxy)-8-fluoro-7-(2-fluoro-6-hydroxyphenyl)quinazolin-4-yl)piperazin-1-yl) prop-2-en-1-one], the Binding % entry is listed as “+++ (+++ indicates binding activity greater than 90%)”.

Regarding `C=CC(=O)N1CCN(c2nc(NCCc3ncccn3)nc3c(F)c(-c4c(C)ccc5[nH]ncc45)c(Cl)cc23)CC1` [Example I-169, 1-(4-(6-chloro-8-fluoro-7-(5-methyl-1H-indazol-4-yl)-2-((2-(pyrimidin-2-yl)ethyl)amino)quinazolin-4-yl)piperazin-1-yl) prop-2-en-1-one], the Binding % entry is “++ (++ indicates binding activity from 50 to 90%)”.

Take `C=CC(=O)N1CCN(c2nc(OCC3CN(c4ncccn4)C3)nc3c(F)c(-c4c(C)ccc5[nH]ncc45)c(Cl)cc23)CC1` [Example I-170, 1-(4-(6-chloro-8-fluoro-7-(5-methyl-1H-indazol-4-yl)-2-((1-(pyrimidin-2-yl)azetidin-3-yl)methoxy)quinazolin-4-yl)piperazin-1-yl) prop-2-en-1-one]: the Binding % entry is listed as “++ (++ indicates binding activity from 50 to 90%)”.
